From patent US11046691B1 (IDEAYA BIOSCIENCES, INC., priority 2018, dated 2021)
pIC50: −log10 of the molar value.

Molecular target: hMAT2A (Homo sapiens (Human), UniProt P31153)
Assay: Phosphate Sensor Fluorescence Assay (MAT2A enzyme inhibition)
Format: biochemical
Settings: L-methionine 500 uM, ATP 500 uM, class symbols
In short: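 Recombinant MAT2A preincubated 15 min at room temperature with compound, then reacted 1 h at room temperature with 500 uM L-methionine and 500 uM ATP in Tris pH 7.5 buffer containing PNP/7-MEG.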

hMAT2A, sequence (P31153 whole entry): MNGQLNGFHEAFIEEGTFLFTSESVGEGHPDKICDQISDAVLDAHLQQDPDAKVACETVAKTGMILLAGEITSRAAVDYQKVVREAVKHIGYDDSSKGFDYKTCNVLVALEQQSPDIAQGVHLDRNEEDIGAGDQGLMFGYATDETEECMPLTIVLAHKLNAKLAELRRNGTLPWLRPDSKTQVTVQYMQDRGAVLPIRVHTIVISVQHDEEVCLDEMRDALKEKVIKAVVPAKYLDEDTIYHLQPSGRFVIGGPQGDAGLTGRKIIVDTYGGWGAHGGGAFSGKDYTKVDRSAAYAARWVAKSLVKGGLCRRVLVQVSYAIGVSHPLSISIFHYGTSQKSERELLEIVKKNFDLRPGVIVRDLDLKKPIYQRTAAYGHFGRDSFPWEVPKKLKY

Row | SMILES | pIC50
1 | O=c1nc(O)c2ccc(Cl)cc2n1-c1ccc2[nH]ncc2c1 [Example 357, 1-(1H-indazol-5-yl)-7-chloro-4-hydroxy-hydroquinazolin-2-one] | 5.00 to 6.00
2 | O=c1[nH]c(=O)n(-c2cnccc2Cl)c2nc(C(F)(F)F)ccc12 [Example 358, 1-(4-chloropyridin-3-yl)-7-(trifluoro-methyl)pyrido[2,3-d]pyrimidine-2,4(1H,3H)-dione] | > 6.70
3 | O=c1[nH]c(=O)n(-c2cccnc2)c2nc(C(F)(F)F)ccc12 [Example 359, 1-(pyridin-3-yl)-7-(trifluoromethyl)-pyrido[2,3-d]pyrimidine-2,4(1H,3H)-dione] | > 6.70
4 | O=c1[nH]c(=O)n(-c2cccnc2)c2cc(C(F)(F)F)ccc12 [Example 362, 1-(pyridin-3-yl)-7-(trifluoromethyl)-1,3-dihydroquinazoline-2,4-dione] | > 6.70
5 | O=c1[nH]c(=O)n(-c2cccc3ncsc23)c2nc(C(F)(F)F)ccc12 [Example 363, 1-benzothiazol-7-yl-7-(trifluoromethyl)-pyrido[2,3-d]pyrimidine-2,4(1H,3H)-dione] | > 6.70
6 | Cc1ncccc1-n1c(=O)[nH]c(=O)c2ccc(C(F)(F)F)nc21 [Example 364, 1-(2-methylpyridin-3-yl)-7-(trifluoro-methyl)pyrido[2,3-d]pyrimidine-2,4(1H,3H)-dione] | > 6.70
7 | Cc1ccncc1-n1c(=O)[nH]c(=O)c2ccc(C(F)(F)F)nc21 [Example 365, 1-(4-methylpyridin-3-yl)-7-(trifluoro-methyl)pyrido[2,3-d]pyrimidine-2,4(1H,3H)-dione] | > 6.70
8 | [2H]C([2H])([2H])Nc1nc(=O)n(-c2ccccc2)c2nc(C(F)(F)F)ccc12 [Example 366, 4-((methyl-d3)amino)-1-phenyl-7-(trifluoromethyl)pyrido[2,3-d]pyrimidin-2(1H)-one] | > 6.70
9 | [2H]C([2H])([2H])Nc1nc(=O)n(-c2ccccc2C)c2cc(C(F)(F)F)ccc12 [Example 367, 4-((methyl-d3)amino)-1-(o-tolyl)-7-(trifluoromethyl)quinazolin-2(1H)-one] | > 6.70
10 | [2H]C([2H])([2H])Nc1nc(=O)n(-c2ccccc2Br)c2cc(Cl)ccc12 [Example 368, 1-(2-bromophenyl)-7-chloro-4-((methyl-d3)amino)quinazolin-2(1H)-one] | > 6.70
11 | [2H]C([2H])([2H])Nc1nc(=O)n(-c2ccccc2)c2cc(C(F)(F)F)ccc12 [Example 369, 4-((methyl-d3)amino)-1-phenyl-7-(trifluoromethyl)quinazolin-2(1H)-one] | > 6.70
12 | CNc1nc(=O)n(-c2ncccc2Cl)c2cc(Cl)ccc12 [Example 370, 7-chloro-1-(3-chloro(2-pyridyl))-4-(methylamino)hydroquinazolin-2-one] | > 6.70
13 | CNc1nc(=O)n(-c2ncccc2C)c2cc(Cl)ccc12 [Example 371] | > 6.70
14 | O=c1nc(N2CC(O)C2)c2ccc(C3CC3)cc2n1-c1ccccc1 [Example 372, 7-cyclopropyl-4-(3-hydroxyazetidin-1-yl)-1-phenylhydroquinazolin-2-one] | > 6.70
15 | O=c1nc(NCC(F)F)c2ccc(C3CC3)cc2n1-c1ccccc1 [Example 373] | > 6.70
16 | O=c1nc(N2CC[C@@H](O)C2)c2ccc(C3CC3)cc2n1-c1ccccc1 [Example 374, 4-((3R)-3-hydroxypyrrolidinyl)-7-cyclopropyl-1-phenylhydroquazolin-2-one] | > 6.70
17 | CNc1nc(=O)n(-c2cnccc2C)c2nc(C(F)(F)F)ccc12 [Example 376] | > 6.70
18 | CNc1nc(=O)n(-c2cnccc2Cl)c2nc(C(F)(F)F)ccc12 [Example 377, 1-(4-chloropyridin-3-yl)-4-(methyl-amino)-7-(trifluoromethyl)pyrido[2,3-d]pyrimidin-2(1H)-one] | > 6.70
19 | CNc1nc(=O)n(-c2cccnc2)c2nc(C(F)(F)F)ccc12 [Example 378, 4-(methylamino)-1-(pyridin-3-yl)-7-(trifluoromethyl)pyrido[2,3-d]pyrimidin-2(1H)-one] | > 6.70
20 | [2H]C([2H])([2H])Nc1nc(=O)n(-c2ccccc2Cl)c2nc(C(F)(F)F)ccc12 [Example 379, 1-(2-chlorophenyl)-4-((methyl-d3)-amino)-7-(trifluoromethyl)pyrido[2,3-d]pyrimidin-2(1H)-one] | > 6.70

Row | SMILES | pIC50
21 | CNc1nc(=O)n(-c2cccnc2C)c2nc(C(F)(F)F)ccc12 [Example 380, 4-(methylamino)-1-(2-methylpyridin-3-yl)-7-(trifluoromethyl)pyrido[2,3-d]-pyrimidin-2(1H)-one] | > 6.70
22 | CNc1nc(=O)n(-c2cccc3ncsc23)c2nc(C(F)(F)F)ccc12 [Example 381, 1-benzothiazol-7-yl-4-(methylamino)-7-(trifluoromethyl)pyrido[2,3-d]pyrimidin-2(1H)-one] | > 6.70
23 | Nc1nc(=O)n(-c2ccccc2)c2cc(Cl)cc(Cl)c12 [Example 383, 4-amino-5,7-dichloro-1-phenyl-hydroquinazolin-2-one] | 6.00 to 6.30
24 | Cc1ccc2c(N3CC(O)C3)nc(=O)n(-c3ccccc3)c2n1 [Example 384, 4-(3-hydroxyazetidin-1-yl)-7-methyl-1-phenylpyrido[2,3-d]pyrimidin-2(1H)-one] | > 6.70
25 | O=c1nc(NCC(F)(F)F)c2ccc(C3CC3)cc2n1-c1ccccc1 [Example 385, 7-cyclopropyl-1-phenyl-4-[(2,2,2-trifluoroethyl)amino]hydroquinazolin-2-one] | > 6.70
26 | O=c1nc(N2CCCC2)c2ccc(C3CC3)cc2n1-c1ccccc1 [Example 386, 7-cyclopropyl-1-phenyl-4-pyrrolidin-1-ylhydroquinazolin-2-one] | > 6.70
27 | Nc1nc(=O)n(-c2ccccc2)c2cc(Cl)cc(-n3cccn3)c12 [Example 387, 4-amino-7-chloro-1-phenyl-5-pyrazol-1-ylhydroquinazolin-2-one] | 5.00 to 6.00
28 | O=c1[nH]c(=O)n(-c2ccccc2Cl)c2nc(C(F)(F)F)ccc12 [Example 388, 1-(2-chlorophenyl)-7-(trifluoromethyl)-1,3-dihydropyridino[2,3-d]pyrimidine-2,4-dione] | > 6.70
29 | O=c1nc(NCC(F)(F)F)c2ccc(C(F)(F)F)nc2n1-c1ccccc1Cl [Example 389, 1-(2-chlorophenyl)-4-[(2,2,2-trifluoro-ethyl)amino]-7-(trifluoro-methyl)-pyrido[2,3-d]pyrimidin-2(1H)-one] | > 6.70
30 | CNc1nc(=O)n(-c2cncc(O)c2)c2nc(C(F)(F)F)ccc12 [Example 390, 1-(5-hydroxypyridin-3-yl)-4-(methyl-amino)-7-(trifluoromethyl)pyrido[2,3-d]-pyrimidin-2(1H)-one] | > 6.70
31 | CNc1nc(=O)n(-c2ccnc(O)c2)c2nc(C(F)(F)F)ccc12 [Example 391, 1-(2-hydroxypyridin-4-yl)-4-(methyl-amino)-7-(trifluoromethyl)-pyrido[2,3-d]pyrimidin-2(1H)-one] | > 6.70
32 | C#Cc1ccc2c(NC)nc(=O)n(-c3ccccc3)c2c1 [Example 394, 7-ethynyl-4-(methylamino)-1-phenyl-hydroquinazolin-2-one] | > 6.70
33 | O=c1nc(N2CC[C@@H](O)C2)c2ccc(C(F)(F)F)cc2n1-c1ccccc1Cl [Example 395, 4-((3R)-3-hydroxypyrrolidin-1-yl)-1-(2-chlorophenyl)-7-(trifluoromethyl)hydro-quinazolin-2-one] | > 6.70
34 | COc1nc(=O)n(-c2ccccc2)c2nc(C)ccc12 [Example 396, 4-methoxy-7-methyl-1-phenylpyrido-[2,3-d]pyrimidin-2(1H)-one] | 6.30 to 6.70
35 | Cc1ccc2c(NCC(F)(F)F)nc(=O)n(-c3ccccc3)c2n1 [Example 397, 7-methyl-1-phenyl-4-[(2,2,2-trifluoro-ethyl)amino]pyrido[2,3-d]pyrimidin-2(1H)-one] | > 6.70
36 | Cc1ccc2c(NCC(F)F)nc(=O)n(-c3ccccc3)c2n1 [Example 398, 4-[(2,2-difluoroethyl)amino]-7-methyl-1-phenylpyrido[2,3-d]pyrimidin-2(1H)-one] | > 6.70
37 | COc1nc(=O)n(-c2ccccc2)c2cc(C3CC3)ccc12 [Example 399, 7-cyclopropyl-4-methoxy-1-phenyl-hydroquinazolin-2-one] | > 6.70
38 | Nc1nc(=O)n(-c2ccccc2)c2cc(C3CC3)ccc12 [Example 400, 4-amino-7-cyclopropyl-1-phenylhydro-quinazolin-2-one] | > 6.70
39 | CNc1nc(=O)n(-c2cccc(Br)c2)c2cc(Cl)ccc12 [Example 401, 1-(3-bromophenyl)-7-chloro-4-(methylamino)hydroquinazolin-2-one] | 6.30 to 6.70
40 | CNc1nc(=O)n(-c2ccccc2)c2cc(Cl)cc(OCCN)c12 [Example 402, 5-(2-aminoethoxy)-7-chloro-4-(methyl-amino)-1-phenylhydroquinazolin-2-one] | 6.00 to 6.30

Same assay, conditions: L-methionine 500 uM, ATP 500 uM, numeric bound

Row | SMILES | pIC50
41 | O=c1[nH]c(=O)n(-c2ccccc2Cl)c2c(Cl)c(C(F)(F)F)ccc12 [Example 360, 8-chloro-1-(2-chlorophenyl)-7-(trifluoro-methyl)pyrido[2,3-d]pyrimidine-2,4(1H,3H)-dione-1] | < 5.00
42 | O=c1[nH]c(=O)n(-c2ccccc2)c2c(Cl)c(C(F)(F)F)ccc12 [Example 361] | < 5.00
43 | Cc1ccccc1-n1c(=O)[nH]c(=O)c2ccc(C3CC3)cc21 [Example 375, 7-cyclopropyl-1-(o-tolyl)quinazoline-2,4(1H,3H)-dione] | < 5.00
44 | CCC(C)c1ccc2c(NC)nc(=O)n(-c3ccccc3)c2c1 (stereo not drawn) [Example 382, 4-(methylamino)-7-(methylpropyl)-1-phenylhydroquinazolin-2-one] | < 5.00
45 | CNc1nc(=O)n(-c2cnccc2O)c2nc(C(F)(F)F)ccc12 [Example 392, 1-(4-hydroxypyridin-3-yl)-4-(methyl-amino)-7-(trifluoromethyl)pyrido[2,3-d]-pyrimidin-2(1H)-one] | < 5.00
